Experimental data from publication PMC9775310, “Anticancer, Antimicrobial, and Antioxidant Activities of Organodiselenide-Tethered Methyl Anthranilates” (Biomolecules, 2022).
Converted amounts (≈) assume the structure as drawn. Read-outs that look alike come from different tables or passages of the source.

Columns and labels:
Escherichia coli [1] = assay: Agar well diffusion assay, E. coli; format: cell-based; conditions: ratio of inhibition zone to that of positive control
Experimental: (§1) According to the reported method, the OSe agents’ antimicrobial properties were estimated against Staphylococcus aureus (S. aureus), Escherichia coli (E. coli), and Candida albicans (C. albicans) microbial strains using the agar well diffusion assay. In addition, the MICs (in […]) were also recorded via the microdilution method following the reported procedure. Experimental details can be found in the Supplementary Materials Section S1 [16, 18].
(§2) The promising anticancer activities manifested by the OSe compounds encourage us to further evaluate their respective antimicrobial activity against a panel of gram-negative bacteria (e.g., E. coli) and the gram-positive bacteria (e.g., S. aureus) as well as a fungal strain (C. albicans) using the method of agar diffusion. The clotrimazole antifungal and the ampicillin antibacterial drugs were used as the positive controls. […]
(§3) 1.1.2. The antimicrobial activity
(§4) The antimicrobial activities of the OSe compounds were evaluated against C. albicans yeast as well as E. coli gram-negative and S. aureus gram-positive bacteria employing the agar well diffusion assay [ 4 ] .
(§5) Briefly, a concentration of 1 mM was prepared for each compound by dissolving in DMSO.
(§6) Paper discs of standard size […] were sterilized in an autoclave and soaked in 9 µL of the test compounds, and placed in the Petri dishes, which in turn contain a nutrient media (agar 9 g, peptone 5 g, and beef extract 3 g) seeded with the dedicated strain. Incubation lasted for 13 h at 36 0C. Experiments were replicated three times and the antifungal clotrimazole and antibiotic ampicillin were used as standards. The % activity index for the complex was determined and depicted in table 2. […]

Staphylococcus aureus [2] = assay: Agar well diffusion assay, S. aureus; format: cell-based; conditions: ratio of inhibition zone to that of positive control
Experimental: as §1, §2, §3, §4, §5, §6

Escherichia coli [3] = assay: MIC by microdilution method, E. coli; format: cell-based; conditions: read-out: MIC E. coli
Experimental: as §1
(§7) In general, C. Albicans fungus and S. aureus gram-positive bacteria were more sensitive than gram-negative bacteria toward the OSe compounds. […]
(§8) Briefly, a concentration of 1 mM was prepared for each compound by dissolving in DMSO. […]
(§9) Furthermore, the MICs (in µM) were determined by the microdilution method according to the
1.1.3. […]

Staphylococcus aureus [4] = assay: MIC by microdilution method, S. aureus; format: cell-based; conditions: read-out: MIC S. aureus
Experimental: as §1, §7, §8, §9
1.1.3. […]

Escherichia coli [5] = assay: Agar well diffusion assay, E. coli; format: cell-based; conditions: read-out: E. coli ZID
Staphylococcus aureus [6] = assay: Agar well diffusion assay, S. aureus; format: cell-based; conditions: read-out: S. aureus ZID
Candida albicans [7] = assay: Agar well diffusion assay, C. albicans; format: cell-based; parameters: concentration or dose not given beside the values; conditions: ratio of inhibition zone to that of positive control
Experimental: as §1, §2, §3, §4, §5, §6

Candida albicans [8] = assay: MIC by microdilution method, C. albicans; format: cell-based; conditions: read-out: MIC C. Albicans
Experimental: as §1, §7, §8, §9
1.1.3. […]

Candida albicans [9] = assay: Agar well diffusion assay, C. albicans; format: cell-based; conditions: read-out: C. Albicans ZID
MCF-7 cells = assay: MTT assay, antiproliferative activity, MCF-7 breast carcinoma cells; format: cell-based; conditions: Homo sapiens, MCF7, 24 h, read-out: MCF7 IC50
Experimental: (§10) The anticancer activity of the OSe was performed using the MTT assay against liver (HepG2) and breast (MCF-7) carcinoma cells, as well as normal WI-38 cells following the reported method. Experimental details can be found in the Supplementary Materials Section S1.
(§11) Accordingly, the anticancer properties of the OSe hybrids were assessed against two cancer cell lines, i.e., HepG2 and MCF-7 cells. Furthermore, their corresponding cytotoxicity was also estimated against the immortalized lung WI-38 fibroblasts employing the MTT assay. The Adriamycin cancer drug was used as the positive control.
(§12) 1.1. The biological assays
(§13) 1.1.1. The anticancer activity
(§14) The breast adenocarcinoma (MCF-7), Hepatocellular carcinoma (HEPG-2), and normal fibroblast (WI-38) cells were obtained from ATCC via Holding company for biological products and vaccines (VACSERA), Cairo, Egypt. The reagents […] medium, MTT, DMSO, and fetal bovine serum was obtained from Sigma Aldrich. Dulbecco’s modified Eagle’s medium was used as the culture medium for the cells, and the cytotoxicity was evaluated using the reported MTT assay. Doxorubicin was used as the positive reference, and the IC50 values were obtained from the corresponding dose-response curve.
(§15) This colorimetric assay is based on converting the yellow tetrazolium bromide (MTT) to a purple formazan derivative by mitochondrial succinate dehydrogenase in viable cells. Cell lines were cultured in […] medium with 10% fetal bovine serum. Antibiotics added were 100 units/ml penicillin and 100µg/ml streptomycin at 37 C in a 5% Co2 incubator. The cell lines were seeded in a 96-well plate at a density of 1.0x10^4 cells/well. at 37 C for 48 h under 5% […]
(§16) Finally, dimethyl sulfoxide (DMSO) in the volume of 100 µl is added to each well to dissolve the purple formazan formed. […]

HepG2 cells = assay: MTT assay, antiproliferative activity, HepG2 liver carcinoma cells; format: cell-based; conditions: Homo sapiens, HepG2, 24 h, read-out: HepG2 IC50
Experimental: as §10
as §11, with “control. The concentration inhibition, 50%, needed to kill half of the cells (IC50) was estimated from (concentration-response plots) and tabulated in Table 1.” for “control.”
as §12, §13, §14, §15
Finally, dimethyl sulfoxide (DMSO) in the volume of 100 µl is added to each well to dissolve the purple formazan formed. The colorimetric assay is measured and recorded at an absorbance of 570 nm using a plate reader (EXL 800, USA). […]

WI-38 cells = assay: MTT assay, cytotoxicity against normal WI-38 fibroblasts; format: cell-based; conditions: Homo sapiens, WI-38, 24 h, read-out: WI38 IC50
Experimental: as §10, §11, §12, §13, §14, §15, §16

[10] = DPPH radical scavenging bioassay; conditions: for DPPH radical scavenging activity: 200 µL, 1 mM in MeOH, DPPH 400 µL, 30 min, 517 nm
Source text: (§17) The DPPH and ABTS in vitro bioassays were used to assess the OSe antioxidant activities following the reported method. Experimental details can be found in the Supplementary Materials Section S1.
(§18) The redox modulation activities of the OSe compounds were extensively explored over the last decade owing to their chemopreventive and antioxidant potency. The latter is usually investigated by the ABTS and DPPH in vitro tests employing vitamin C as the positive control. The OSe compound’s magnitude estimated the antioxidant potential to decolorize the distinctive colors of the DPPH^. and ABTS^. radicals at 517 nm and 734 nm, respectively (Figure 2).
(§19) Figure 2 The OSe compounds redox activities assessment using the ABTS and DPPH experiments. All tests are mean ± SD. ABTS experiment: absorbance was followed at 734 nm for OSe compounds (50 µL, 1 mM in MeOH) and ABTS solution (60 µL). DPPH experiment: Absorbance was monitored after 30 min at 517 nm for OSe compounds (200 µL, 1 mM in MeOH) and DPPH (400 µL). […]
1.1.3. The antioxidant activity
1.1.3.1. The DPPH bioassay
The hydrogen atom or electron donation ability of the corresponding compounds was measured by estimating the bleaching of the purple color of a methanolic solution of DPPH [5]. This spectrophotometric assay uses stable DPPH. reagent. The sample was prepared by adding […] of the OSe compounds (1 mM in methanol) to […] DPPH in methanol. After 30 min of incubation in the dark, the absorbance was read against a blank at […]. Ascorbic acid (vitamin C) and ebselen were used as standard antioxidants (positive control). A blank sample was run without DPPH. A negative control sample was run using methanol instead of the sample. The radical scavenging activity was […]
using the following equation:
Inhibition%= (Ablank-Asample)/(Ablank)*100. […]

[11] = ABTS radical scavenging bioassay; conditions: for ABTS radical scavenging activity: 50 µL, 1 mM in MeOH, ABTS solution 60 µL, 734 nm
Source text: as §17, §18, §19
1.1.3.2. The ABTS bioassay
The antioxidant activity of the investigated compounds was assessed using 2,2’-azino-bis(3-ethylbenzothiazoline-6-sulphonic acid (ABTS) method. The radical cation derived from ABTS was prepared by the reaction of 60 mM ABTS solution with 0.3 M manganese dioxide solution in 0.1M phosphate buffer, pH 7. Then, the mixture was shaken, centrifuged, filtered, and the absorbance (Acontrol) of the resulting green-blue solution (ABTS radical solution) was measured at wavelength 734 nm. Then, […] of 1 mg/ml test compound in phosphate-buffered methanol was added. The absorbance (Atest) was measured. The reduction in color intensity was expressed as % inhibition. The % inhibition for each compound is calculated from the following equation
Inhibition% = (Acontrol-Asample)/(Acontrol)*100
Ascorbic acid (vitamin C) was used as a standard antioxidant (positive control). A blank sample was run without ABTS and using MeOH/phosphate buffer (1:1) instead of the sample. A negative control sample was run with MeOH/phosphate buffer (1:1) instead of a tested compound.

[12] = inhibition zone diameter, disks (6 mm) soaked with 20 μM
[13] = dose needed to decrease the absorbance by 50%

CC1(C)S[C@@H]2[C@H](NC(=O)[C@H](N)c3ccccc3)C(=O)N2[C@H]1C(=O)O [Ampicillin, reference compound]
E. coli IA% (activity index) (Escherichia coli [1]): 100%
S. aureus IA% (activity index) (Staphylococcus aureus [2]): 100%
MIC (Escherichia coli [3]; microdilution): 0.5 µM (≈ 0.175 µg/mL)
MIC (Staphylococcus aureus [4]; microdilution): 1 µM (≈ 0.349 µg/mL)
zone of inhibition at 20 µM (Escherichia coli [5]; [12]): 23 mm
zone of inhibition at 20 µM (Staphylococcus aureus [6]; [12]): 21 mm

Clc1ccccc1C(c1ccccc1)(c1ccccc1)n1ccnc1 [Clotrimazole, reference compound]
C. Albicans IA% (activity index) (Candida albicans [7]): 100%
MIC (Candida albicans [8]; microdilution): 2 µM (≈ 0.69 µg/mL)
zone of inhibition at 20 µM (Candida albicans [9]; [12]): 24 mm

COC(=O)c1cc([Se]C#N)ccc1N [Compound 4, Methyl 2-amino-5-selenocyanatobenzoate]
IC50 (MCF-7 cells): 23.4 ± 1.8 µM
IC50 (HepG2 cells): 11.2 ± 1 µM
IC50 (WI-38 cells): 52.6 ± 3.1 µM
E. coli IA% (activity index) (Escherichia coli [1]): 60.9%
S. aureus IA% (activity index) (Staphylococcus aureus [2]): 76.2%
C. Albicans IA% (activity index) (Candida albicans [7]): 75%
DPPH radical scavenging activity [10]: 81%
ABTS radical scavenging activity [11]: 73%
melting point: 118 to 119 °C
zone of inhibition at 20 µM (Escherichia coli [5]): 14 mm
zone of inhibition at 20 µM (Staphylococcus aureus [6]): 16 mm
zone of inhibition at 20 µM (Candida albicans [9]): 18 mm

COC(=O)c1cc([Se][Se]c2ccc(N)c(C(=O)OC)c2)ccc1N [Compound 5, dimethyl 5,5′-diselanediylbis(2-aminobenzoate)]
IC50 (MCF-7 cells): 9.89 ± 0.7 µM
IC50 (HepG2 cells): 7.08 ± 0.6 µM
IC50 (WI-38 cells): 35.9 ± 2.3 µM
E. coli IA% (activity index) (Escherichia coli [1]): 82.6%
S. aureus IA% (activity index) (Staphylococcus aureus [2]): 85.7%
C. Albicans IA% (activity index) (Candida albicans [7]): 87.5%
DPPH radical scavenging activity [10]: 92%
ABTS radical scavenging activity [11]: 86%
zone of inhibition at 20 µM (Escherichia coli [5]): 19 mm
zone of inhibition at 20 µM (Staphylococcus aureus [6]): 18 mm
zone of inhibition at 20 µM (Candida albicans [9]): 21 mm

CCOC(=O)C(C#N)=NNc1ccc([Se][Se]c2ccc(NN=C(C#N)C(=O)OCC)c(C(=O)OC)c2)cc1C(=O)OC [Compound 6, dimethyl 5,5′-diselanediylbis(2-(2-(1-cyano-2-ethoxy-2-oxoethylidene) hydrazinyl) benzoate)]
IC50 (MCF-7 cells): 15.9 ± 1.2 µM
IC50 (HepG2 cells): 16.2 ± 1.2 µM
IC50 (WI-38 cells): 42.5 ± 2.6 µM
E. coli IA% (activity index) (Escherichia coli [1]): 69.6%
S. aureus IA% (activity index) (Staphylococcus aureus [2]): 76.2%
C. Albicans IA% (activity index) (Candida albicans [7]): 70.8%
DPPH radical scavenging activity [10]: 85%
ABTS radical scavenging activity [11]: 69%
melting point: 105 to 106 °C
zone of inhibition at 20 µM (Escherichia coli [5]): 16 mm
zone of inhibition at 20 µM (Staphylococcus aureus [6]): 16 mm
zone of inhibition at 20 µM (Candida albicans [9]): 17 mm

COC(=O)c1cc([Se]C)ccc1N [Compound 14, methyl 2-amino-5-(methylselanyl) benzoate]
IC50 (MCF-7 cells): 5.64 ± 0.3 µM
IC50 (HepG2 cells): 3.57 ± 0.1 µM
IC50 (WI-38 cells): 62.4 ± 3.6 µM
E. coli IA% (activity index) (Escherichia coli [1]): 91.3%
S. aureus IA% (activity index) (Staphylococcus aureus [2]): 90.5%
C. Albicans IA% (activity index) (Candida albicans [7]): 100%
MIC (Escherichia coli [3]): 0.5 µM (≈ 0.122 µg/mL)
MIC (Staphylococcus aureus [4]): 2 µM (≈ 0.488 µg/mL)
MIC (Candida albicans [8]): 2 µM (≈ 0.488 µg/mL)
DPPH radical scavenging activity [10]: 96%
IC50 [10, 13]: 18.67 ± 0.12 µM
ABTS radical scavenging activity [11]: 91%
IC50 [11, 13]: 29.14 ± 0.2 µM
zone of inhibition at 20 µM (Escherichia coli [5]): 21 mm
zone of inhibition at 20 µM (Staphylococcus aureus [6]): 19 mm
zone of inhibition at 20 µM (Candida albicans [9]): 24 mm
